Reference: patent publication US20250197461A1, “Insect-derived short peptide for improving abscisic acid (ABA) content in cruciferous plant” (Gannan Normal University, priority 2023, published 2025)

Tested on: Arabidopsis thaliana leaves
Test: Non-targeted metabolomics of Arabidopsis thaliana leaves treated with short peptide
Type: in vivo
Details: 0.01 mg/mL, vs GFP control
Method: In this experiment, the materials used for metabonomics analysis and phytohormone detection are Arabidopsis thaliana samples with consistent growth status. Synthetic short peptide of GSS1-PI with the corresponding concentration and mass was weighed and dissolved in 0.1% DMSO to obtain a 0.01 mg/mL treatment solution. A wild-type Arabidopsis thaliana plant of about four weeks old was taken, two cotyledons were collected and mechanically damaged to obtain three small holes, 2 μL of the GSS1-PI solution was added dropwise into each small hole, while GFP solution was used as the control group. After 24 h and 48 h of treatment, approximately 0.2 g of Arabidopsis thaliana leaves were collected, and each treatment had three biological replicates. The leaves were quickly placed in liquid nitrogen and stored in a −80° C. ultra-low temperature refrigerator for subsequent phytohormone group detection and metabolomic analysis.
100 mg of Arabidopsis thaliana leaves was taken and added with liquid nitrogen for full grinding, and the fine powder was put in a 1.5 mL centrifuge tube. 500 μL of 80% methanol aqueous solution was pipette in the centrifuge tube and subjected to vortex oscillation to mix well, and the centrifuge tube was put on ice for 5 min. After standing, the mixture was centrifuged at 15000 g at 4° C. for 20 min. Then, 200 μL of supernatant was pipette and diluted with appropriate amount of mass spectrometry water until the methanol content in the solution was 53%. The dilution was centrifuged again for 20 min, the supernatant was retained and loaded for LC-MS analysis of the sample.
Related instruments were set as follows: chromatographic column temperature: 40° C.; injection flow rate: 0.2 mL/min; Positive ion mode: 0.1% formic acid for mobile phase A; mass grade methanol for mobile phase B; Negative ion mode: 5 mM ammonium acetate for mobile phase A, and mass grade methanol for mobile phase B.
The scanning range was m/z 100-1500: the setting of ESI signal source was as follows: spray voltage: […]; sheath gas flow rate: 35 psi; auxiliary gas flow rate: 10 L/min; ion transport tube temperature: 320° C.; iontophoresis RF frequency: 60; auxiliary heater temperature: 350° C.; MS/MS secondary scanning is set to dependency scanning data.
After the experiment was completed, the relevant data files were imported into the database search software for analysis and processing, and the residence time, mass-to-charge ratio and other related parameters of each metabolite were simply screened and checked. In order to identify more accurately, the different samples were peak-aligned, with the retention time deviation of 0.2 min and mass deviation of 5 ppm. Then peak extraction and peak area quantification were carried out to integrate the target ions, and then ion peaks were predicted by molecular formula and compared with local data. In order to remove the interference of background ions, the original quantitative results were standardized and blank sample controls were added. Finally, the relative quantitative results of the relevant metabolites were obtained and identified.
Multivariate statistical analysis of metabolite data included two parts, component analysis (PCA) and partial least squares discriminant analysis (PLS-DA). The data was converted by metaX, a metabonomics processing software, to get the VIP value of each metabolite. In univariate analysis, the statistical significance (P value) between the two groups of metabolites was analyzed by t test, and the fold change of metabolites between the two groups, that is, FC value, was calculated. The default screening criteria for differential metabolites were VIP>1, P value<0.05 and FC≥2 or FC≤0.5.

Sequence: PDYKQKLRDSKAWESLETIGIPLDADVM (insect-derived short peptide) [GSS1-PI]
- log2FC 2-Phenylacetamide (24 h): 0.608
- log2FC 3,4,5-Trimethoxycinnamic acid (24 h): −1.348
- log2FC (−)-chimonanthine (24 h): 0.731
- log2FC Coumarin (24 h): −1.039
- log2FC Cytosine (24 h): 1.096
- log2FC Eriodictyol (24 h): 0.908
- log2FC Gracillin (24 h): −1.823
- log2FC Hesperidin (24 h): 0.708
- log2FC Hippuric acid (24 h): −0.465
- log2FC L-arginine (24 h): −0.600
- log2FC Madecassic acid (24 h): 1.041
- log2FC Methyl dihydrojasmonate (24 h): 0.784
- log2FC N-Methyltryptamine (24 h): −0.651
- log2FC Ptaquiloside (24 h): −1.418
- log2FC Quercetin 3-O-sophoroside (24 h): −2.173
- log2FC Rhoifolin (24 h): 0.699
- log2FC Spectinomycin (24 h): 0.579
- log2FC Tiglic acid (24 h): −0.663
- log2FC cis-2-Decenoic acid (24 h): −0.599
- log2FC α-Linolenoyl ethanolamide (24 h): 1.586
- log2FC 2′-O-Methyladenosine (48 h): 1.543
- log2FC 3,4,5-Trimethoxycinnamic acid (48 h): −2.132
- log2FC 5α-Dihydrotestosterone glucuronide (48 h): −1.186
- log2FC 5′-Deoxy-5′-(Methylthio)Adenosine (48 h): 1.330
- log2FC 20-Hydroxyecdysone (48 h): −1.153
- log2FC Allantoic acid (48 h): −1.815
- log2FC Alpha-Mangostin (48 h): 1.363
- log2FC Benzamide (48 h): 1.564
- log2FC Camelliaside A (48 h): 1.640
- log2FC Cimifugin (48 h): 1.872
- log2FC Coumarin (48 h): −1.930
- log2FC Cucurbitacin E (48 h): 1.309
- log2FC DL-Methionine (48 h): 1.393
- log2FC DL-Panthenol (48 h): 1.615
- log2FC N-(p-Coumaroyl) serotonin (48 h): −1.010
- log2FC Neopterin (48 h): 1.709
- log2FC Saikosaponin B4 (48 h): −1.655
- log2FC Sclareolide (48 h): −2.003
- log2FC Scopoletin (48 h): −1.518
- log2FC Sinapinic acid (48 h): −1.203
